Among the test systems are HCC-2998 colon; MCF7 breast; MDA-MB-231 breast; NCI-H522 lung; OVCAR-3 ovarian; OVCAR-8 ovarian; PC-3 prostate; SK-MEL-5 melanoma; TK-10 renal; U251 CNS.
Holding throughout (experiment): DTP human tumour cell line panel, 48 h

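A five-concentration, 48-hour dose response in 96-well plates underlies each endpoint, interpolated linearly between surrounding concentrations. Abbreviation: GI50, concentration required for 50% inhibition of growth. TGI is the concentration that stops growth completely.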 A value given as a limit tells only on which side of the number the result lay.

Consider `CC12OC(CC(O)C1O)n1c3ccccc3c3c4c(c5c6ccccc6n2c5c31)C(=O)N(CCN1CCOCC1)C4=O` (centres undefined), for which the GI50 was 3.25 µM in the test on HCC-2998 colon; 0.242 µM in the test on MCF7 breast; 3.04 µM with MDA-MB-231 breast; 0.704 µM in the test with NCI-H522 lung; 1.55 µM with OVCAR-3 ovarian; 1.43 µM in the test on OVCAR-8 ovarian. Further, the GI50 is 1.19 µM in the test with PC-3 prostate, 0.791 µM with SK-MEL-5 melanoma, 0.953 µM in the test on TK-10 renal and 0.604 µM with U251 CNS. Also, the TGI is 10.6 µM in the test with HCC-2998 colon; 8.02 µM with MCF7 breast; 11.5 µM in the test on MDA-MB-231 breast; 3.63 µM in the test with NCI-H522 lung; 7.33 µM in the test on OVCAR-3 ovarian; 8.71 µM with OVCAR-8 ovarian. The TGI in the test on PC-3 prostate worked out at 7.3 µM; in the test with SK-MEL-5 melanoma, 2.87 µM; in the test with TK-10 renal, 5.48 µM; in the test on U251 CNS, 5.65 µM.
`CCN(CC)CCNC(=O)c1cccc2c1-c1ccccc1C2=O`: the GI50 in the test with HCC-2998 colon, in the test on MCF7 breast, with MDA-MB-231 breast, with NCI-H522 lung, in the test with OVCAR-3 ovarian and with OVCAR-8 ovarian was more than 100 µM each time. Besides, the GI50 in the test with PC-3 prostate, in the test with SK-MEL-5 melanoma, with TK-10 renal and in the test on U251 CNS was more than 100 µM each time. For the same compound, the TGI with HCC-2998 colon, in the test with MCF7 breast, in the test on MDA-MB-231 breast, in the test with NCI-H522 lung, with OVCAR-3 ovarian and in the test on OVCAR-8 ovarian was more than 100 µM throughout. Also, the TGI in the test on PC-3 prostate, in the test with SK-MEL-5 melanoma, with TK-10 renal and in the test with U251 CNS was more than 100 µM throughout.
For the compound `COc1ccc(Cn2cc(COc3cc(/C=C/C(=O)c4cc(OC)c(OC)c(OC)c4)ccc3OC)nn2)cc1`, the GI50 in the test with HCC-2998 colon is 3.9 µM; in the test on MCF7 breast, 3.15 µM; in the test with MDA-MB-231 breast, 4.62 µM; in the test with NCI-H522 lung it was 1.69 µM; with OVCAR-3 ovarian it was 2.62 µM; in the test on OVCAR-8 ovarian, 3.06 µM. In addition, the GI50 is 3.63 µM in the test on PC-3 prostate, 3.66 µM in the test with SK-MEL-5 melanoma, 3.7 µM with TK-10 renal and 3.8 µM in the test on U251 CNS. In addition, the TGI in the test on HCC-2998 colon was more than 100 µM; with MCF7 breast, more than 100 µM; in the test with MDA-MB-231 breast, more than 100 µM; in the test on NCI-H522 lung, 4.18 µM; with OVCAR-3 ovarian it was 6.71 µM; in the test on OVCAR-8 ovarian it was more than 100 µM. Further, the TGI is more than 100 µM in the test with PC-3 prostate, 20.5 µM in the test on SK-MEL-5 melanoma, 26.3 µM in the test on TK-10 renal and more than 100 µM in the test on U251 CNS.
In the case of `COC(=O)C1C(C(=O)O)C2(c3ccccc3)C(=O)C1(c1ccccc1)C(c1ccccc1)=C2c1ccccc1` (centres undefined), the GI50 in the test on HCC-2998 colon is 15.7 µM; in the test on MCF7 breast, 19.6 µM; in the test with MDA-MB-231 breast it was 19.4 µM; in the test with NCI-H522 lung, 16 µM; in the test with OVCAR-3 ovarian it was 19.7 µM; in the test with OVCAR-8 ovarian, 18.8 µM. Further, the GI50 is 15.2 µM with PC-3 prostate, 12.9 µM with SK-MEL-5 melanoma, 39.2 µM in the test with TK-10 renal and 24.2 µM in the test on U251 CNS. Moreover, the TGI is 29.6 µM in the test on HCC-2998 colon; 37.6 µM in the test with MCF7 breast; 38.5 µM with MDA-MB-231 breast; 34.1 µM in the test with NCI-H522 lung; 50.4 µM with OVCAR-3 ovarian; 35.9 µM in the test on OVCAR-8 ovarian. Besides, the TGI in the test with PC-3 prostate was 32.5 µM; with SK-MEL-5 melanoma, 27.6 µM; in the test with TK-10 renal it was 99 µM; in the test on U251 CNS, more than 100 µM.
For `CCOc1cc(-c2nncn2C)ccc1Nc1ncc2cc(C)nc(NCC(C)(C)C)c2n1`, the GI50 in the test with HCC-2998 colon is more than 100 µM; in the test with NCI-H522 lung, more than 64.4 µM; with OVCAR-3 ovarian, more than 27.5 µM; in the test with SK-MEL-5 melanoma, more than 24 µM; with TK-10 renal it was more than 100 µM; in the test with U251 CNS it was more than 100 µM. Further, the TGI with HCC-2998 colon, with MCF7 breast, with MDA-MB-231 breast, in the test with NCI-H522 lung, with OVCAR-3 ovarian and in the test on OVCAR-8 ovarian was more than 100 µM in each case. Besides, the TGI with PC-3 prostate, in the test on SK-MEL-5 melanoma, in the test with TK-10 renal and in the test on U251 CNS was more than 100 µM in each case.
For the compound `Cc1ccc(/C=N/NC(=O)c2ccccc2Oc2ccccc2)o1`, the GI50 was 65.3 µM in the test with HCC-2998 colon; 32.9 µM with MCF7 breast; 32.7 µM in the test with MDA-MB-231 breast; 25.8 µM in the test with NCI-H522 lung; 40.1 µM in the test on OVCAR-3 ovarian; 39 µM with OVCAR-8 ovarian. In addition, the GI50 was 30.3 µM in the test with PC-3 prostate, 16.4 µM in the test on SK-MEL-5 melanoma, 71.6 µM with TK-10 renal and 52.2 µM in the test on U251 CNS. Besides, the total growth inhibition concentration (TGI) in the test on HCC-2998 colon, in the test on MCF7 breast, with MDA-MB-231 breast, in the test on NCI-H522 lung, in the test on OVCAR-3 ovarian and with OVCAR-8 ovarian was more than 100 µM throughout. Further, the TGI with PC-3 prostate is more than 100 µM; with SK-MEL-5 melanoma, 33.3 µM; in the test with TK-10 renal it was more than 100 µM; with U251 CNS it was more than 100 µM.
As for `Cc1ccc(C[As+](c2ccccc2)(c2ccccc2)c2ccccc2)cc1`, the GI50 in the test with HCC-2998 colon was 0.645 µM; in the test on MCF7 breast, 0.621 µM; in the test on MDA-MB-231 breast, 1.46 µM; with NCI-H522 lung, 0.649 µM; in the test on OVCAR-3 ovarian, 0.611 µM; in the test on OVCAR-8 ovarian it was 0.599 µM. Further, the GI50 in the test on PC-3 prostate is 0.409 µM; in the test on SK-MEL-5 melanoma, 0.23 µM; in the test with TK-10 renal it was 2.01 µM; with U251 CNS, 0.58 µM. Moreover, the TGI was determined as 19.6 µM in the test on HCC-2998 colon; 17.2 µM with MCF7 breast; 19.6 µM in the test with MDA-MB-231 breast; 8.38 µM in the test with NCI-H522 lung; 13.9 µM with OVCAR-3 ovarian; 15.3 µM with OVCAR-8 ovarian. Besides, the TGI in the test with PC-3 prostate was 10.4 µM; in the test on SK-MEL-5 melanoma, 0.719 µM; in the test on TK-10 renal it was 20.5 µM; with U251 CNS, 15.9 µM.
For `CNC(=O)ON(C(C)=O)C(=O)NC`, the TGI in the test on HCC-2998 colon is 272 µM; in the test with MCF7 breast it was 154 µM; in the test on MDA-MB-231 breast it was 78.4 µM; in the test with NCI-H522 lung, 73.5 µM; in the test with OVCAR-3 ovarian, 140 µM; with OVCAR-8 ovarian it was 235 µM. For the same compound, the TGI was found to be 60.7 µM in the test with PC-3 prostate, 107 µM with SK-MEL-5 melanoma, 70.6 µM in the test on TK-10 renal and 222 µM in the test with U251 CNS. The figures for the GI50 with MDA-MB-231 breast, in the test on OVCAR-3 ovarian and in the test with U251 CNS were 28.8 µM, more than 81.9 µM and 93 µM, respectively.
Consider `N#C/C(=C\c1cc(O)c(O)c(O)c1)C(N)=O`, for which the TGI was more than 100 µM in the test on HCC-2998 colon; more than 56 µM in the test on MCF7 breast; more than 100 µM in the test with MDA-MB-231 breast; more than 100 µM with NCI-H522 lung; more than 100 µM with OVCAR-3 ovarian; more than 100 µM with OVCAR-8 ovarian. Besides, the total growth inhibition concentration (TGI) in the test on PC-3 prostate, in the test on SK-MEL-5 melanoma, in the test with TK-10 renal and with U251 CNS was more than 100 µM throughout.
`CN1CCN(CCCNC(=O)c2c3c(n4ccccc24)C(=O)c2ncccc2C3=O)CC1`: the GI50 is 1.04 µM with HCC-2998 colon; 0.612 µM in the test on MCF7 breast; 1 µM in the test with MDA-MB-231 breast; 1.01 µM in the test with NCI-H522 lung; 0.4 µM in the test on OVCAR-3 ovarian; 0.888 µM with OVCAR-8 ovarian. In addition, the GI50 was 1.37 µM in the test with PC-3 prostate, 0.547 µM with SK-MEL-5 melanoma, 5.13 µM with TK-10 renal and 1.48 µM in the test on U251 CNS. Further, the TGI is 4.07 µM in the test on HCC-2998 colon; 2.62 µM with MCF7 breast; more than 80 µM in the test with MDA-MB-231 breast; 3.86 µM in the test with NCI-H522 lung; 3.53 µM in the test with OVCAR-3 ovarian; 5.99 µM in the test on OVCAR-8 ovarian. In addition, the TGI with PC-3 prostate stood at 9 µM; with SK-MEL-5 melanoma, 1.54 µM; in the test on TK-10 renal, 40.9 µM; in the test with U251 CNS, 6.54 µM.
`C/C=C(\N=C=S)C(=O)OC1C(COC(C)=O)OC([C@]2(O)CC(=O)C(=N)C(C(=O)O)=C2O)C(O)C1OC1CC(OC)C(O)([C@@H](C)OC(=O)[C@@H](C)CC)C(C)O1` (some centres undefined): the TGI in the test with HCC-2998 colon was 40.1 µM; with MCF7 breast, 38.4 µM; in the test on MDA-MB-231 breast, 51.7 µM; with NCI-H522 lung it was 5.32 µM; in the test on OVCAR-3 ovarian, 35.7 µM; in the test with OVCAR-8 ovarian it was 15 µM. Moreover, the TGI worked out at 32.7 µM in the test on PC-3 prostate, 28.6 µM in the test on SK-MEL-5 melanoma, 31.4 µM with TK-10 renal and 21.8 µM in the test with U251 CNS.
Take `Nc1ccccc1C#C/C=C\C#Cc1ccccc1C#CCO`: the GI50 in the test with HCC-2998 colon was 2.95 µM; with MCF7 breast it was 7.87 µM; in the test on MDA-MB-231 breast, 7.73 µM; in the test with NCI-H522 lung, 11.8 µM; in the test with OVCAR-3 ovarian it was 6.63 µM; in the test with OVCAR-8 ovarian it was 8.36 µM. In addition, the GI50 with PC-3 prostate is 27.5 µM; in the test on SK-MEL-5 melanoma, 6.1 µM; in the test on TK-10 renal, 11.8 µM; in the test on U251 CNS, 7.41 µM. In addition, the TGI with HCC-2998 colon is 10.6 µM; in the test with MCF7 breast, more than 50 µM; in the test with MDA-MB-231 breast it was 28.7 µM; with NCI-H522 lung it was 28.2 µM; in the test with OVCAR-3 ovarian, 18.5 µM; with OVCAR-8 ovarian it was 27.1 µM. The TGI in the test on PC-3 prostate is more than 50 µM; in the test on SK-MEL-5 melanoma, 14.1 µM; in the test on TK-10 renal, 27.5 µM; with U251 CNS it was 18.7 µM.

For the origin of these results see PubChem BioAssay (NCI).
